# Measurements reported in patent publication US20210284691A1, “CBX8 CHROMDOMAIN INHIBITORS AND THE USES THEREOF” (Purdue Research Foundation, priority 2019, published 2021).
# Square brackets hold non-standard residues; d marks the D form. Peptide text beside a SMILES is read from it. * marks the point of attachment. X2 = O=C(NCCCCn1cc(CN*)nn1)c1ccc2c(c1)C1(OC2=O)c2ccc(O)cc2Oc2cc(O)ccc21; Isoxazole3carbonyl(5-iPr) = CC(C)c1cc(C(=O)*)no1; Tyr(3-Cl) = N[C@@H](Cc1ccc(O)c(Cl)c1)C(=O)O; Gly(3-thienyl) = N[C@H](C(=O)O)c1ccsc1; Lys(Et2) = CCN(CC)CCCC[C@H](N)C(=O)O
# Columns and labels:
# CBX2 ChD = target: T1, CBX2 ChD (Homo sapiens, UniProt Q14781); assay: Direct fluorescence polarization (FP) binding assay
# T1 construct: CBX chromodomain constructs; host or cells: E. coli BL21 CodonPlus RIL
# T1 sequence (Q14781 12-70 limits assumed): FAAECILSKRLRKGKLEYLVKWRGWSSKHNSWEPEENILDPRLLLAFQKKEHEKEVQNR
# Description: (§1) Bacterial growth was completed at 37° C. in LB media to OD600=2.0, followed by reducing the temperature to 16° C. over 30-60 min and induced with 1 mM IPTG for 16 h. Cells were collected by centrifugation at 6000 rpm for 20 min and resuspended in ChD binding buffer (20 mM Tris, pH 8, 150 mM NaCl, 0.01% Tween-20, 20 mM imidazole) with 1.0 mM PMSF. Bacteria pellets were stored at −80° C. until needed. Pellets were thawed on ice for 10 min in ChD binding buffer, and shaked at 4° C. supplemented with 100 μg/mL lysozyme, 1 mg/mL CHAPS and 1 mM PMSF, for 30 min. Cells were subsequently lysed by sonication (15 W, 30 s on, followed by 30 s off, twice, followed by 20 W for 1 min). The solubilized fraction was collected by centrifugation at 15000 rpm for 40 min at 4° C. Meanwhile, Ni-NTA Agarose resin (QIAGEN, Venlo, Netherlands) was washed with H2O and equilibrated with ChD binding buffer. The soluble fraction was incubated with the prewashed Ni-NTA agarose resin at 4° C. for 2 h. The resin was then washed 3× with ChD purification buffer (20 mM Tris, pH 8, 150 mM NaCl, 0.01% Tween-20, 1 mM PMSF). Proteins were eluted by the addition of 0.5 M imidazole to ChD purification buffer. The elution was diluted with 30% glycerol, flash frozen, and stored at −80° C. until needed. Protein purity was assessed by SDS-PAGE and concentration was determined by the Pierce 660 kit (Thermo Scientific).
# Direct fluorescence polarization (FP) binding assay of PSL hits against PcG CBX ChDs. FP assays were conducted as above with slight modifications. Alkyne peptides described above were conjugated with a fluorescein group(5-/6-FAM) through copper catalyzed click reaction as previously described. The FAM-labeled peptide was kept constant at 100 nM. The CBX ChD proteins were titrated by 2-fold series dilutions in the assays. The highest protein concentrations, at which FAM-peptide was completely bound, used for each CBX in the direct binding assays depends on the binding affinity of the peptides. Assays were performed for each peptide in four replicates.
# CBX7 ChD = target: T2, CBX7 ChD (Homo sapiens, UniProt O95931); assay: as above
# T2 construct: CBX chromodomain constructs; host or cells: E. coli BL21 CodonPlus RIL
# T2 sequence (O95931 11-69 limits assumed): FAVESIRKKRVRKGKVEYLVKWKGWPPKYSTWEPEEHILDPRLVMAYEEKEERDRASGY
# Description: as §1, with “CBX chromodomain constructs (addgene plasmid #25158 (CBX2), #25237 (CBX4), #25296 (CBX6), #25241 (CBX7) and #62514 (CBX8, provided by Cheryl Arrowsmith), Kaustov et al.) were transformed into chemically competent BL21 CodonPlus RIL E. coli cells (Stratagene, La Jolla, Calif.) as N-terminal His6-tagged proteins. Bacterial” for “Bacterial”, “The soluble fraction was incubated with the prewashed Ni-NTA agarose resin at 4° C. for 2 h. The resin was then washed 3× with ChD purification buffer (20 mM Tris, pH 8, 150 mM NaCl, 0.01% Tween-20, 1 mM PMSF). Proteins were eluted by the addition of 0.5 M imidazole to ChD purification buffer. The elution was diluted with 30% glycerol, flash frozen, and stored at −80° C. until needed.” left out
# Direct fluorescence polarization (FP) binding assay of PSL hits against PcG CBX ChDs. […]
compound,measurement,setting,value
CC[C@H](C)[C@H](NC(=O)[C@@H](NC(=O)[C@H](Cc1ccc(O)c(Cl)c1)NC(=O)c1cc(C(C)C)on1)c1ccsc1)C(=O)N[C@@H](CCCCN(CC)CC)C(=O)N[C@@H](CO)C(=O)NCc1cn(CCCCNC(=O)c2ccc3c(c2)C2(OC3=O)c3ccc(O)cc3Oc3cc(O)ccc32)nn1 [SW2_104A-FL] ({Isoxazole3carbonyl(5-iPr)}-[Tyr(3-Cl)][Gly(3-thienyl)]I[Lys(Et2)]S-X2),Kd,CBX2 ChD,0.051 ± 0.036 µM
same,Kd,CBX7 ChD,0.84 ± 0.38 µM
